Measurements as given in patent US11629171B2, “Beta-hairpin peptidomimetics” (POLYPHOR AG, priority 2017, dated 2023).
Converted amounts (≈) assume the structure as drawn. Where a SMILES comes first, the peptide text is derived from it. Bridges are numbered along the chain shown (N, C = ends). Roman numbers before positions name the chains, in order. [ ]: non-standard residue; d: D form. The star is where a group is joined. Thr(ol) = C[C@@H](O)[C@H](N)CO; Tle = CC(C)(C)[C@H](N)C(=O)O; Hiv = CC(C)[C@H](O)C(=O)O; dDab = NCC[C@@H](N)C(=O)O; hSer = N[C@@H](CCO)C(=O)O; NHCH(CH2OH)2 = OCC(CO)N*; Dab = NCC[C@H](N)C(=O)O; Abu = CC[C@H](N)C(=O)O; Dap = NC[C@H](N)C(=O)O

Columns and labels:
Assay type in all cases: cell-based
[1] = system: Klebsiella pneumoniae 968733; details: 968733
Outline: (§1)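 MIC in μg/mL, read as absence of visible growth after 18-20 h incubation at 35° C, by standard CLSI microdilution. Peptides tested in two-fold serial dilution in cation-adjusted MH-II broth containing 0.002% (final) Polysorbate 80, against roughly 10^6 CFU/mL inocula.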

[2] = system: Escherichia coli 926415; details: 926415
Outline: as §1

[3] = system: Acinetobacter baumannii 872842; details: 872842
Outline: as §1

[4] = system: Klebsiella pneumoniae SSI #3010; details: SSI #3010
Outline: as §1

[5] = system: Pseudomonas aeruginosa ATCC 27853; details: ATCC 27853
Outline: as §1

[6] = system: Enterobacter cloacae 848840; details: 848840
Outline: as §1

[7] = system: Acinetobacter baumannii DSM 30008; details: DSM 30008
Outline: as §1

[8] = system: Escherichia coli ATCC 25922; details: ATCC 25922
Outline: as §1

[9] = system: human red blood cells (hRBC); assay: Hemolysis; details: red cells of human, 1 h, 200
Outline: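 hRBC washed 4× in PBS; 200 μg/mL peptide + 20% (v/v) hRBC, 1 h, 37° C, 300 rpm. Spin, supernatant ~7.5-fold diluted, OD540 blank corrected. % hemolysis = OD540 peptide / OD540 Triton X-100 × 100.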

CC(C)C[C@@H]1NC(=O)[C@@H](CC(C)C)NC(=O)[C@H](CCN)NC(=O)[C@@H](NC(=O)[C@H](CCN)NC(=O)[C@@H](NC(=O)[C@H](CCN)NC(=O)CC[C@@H]2NC(=O)[C@H](CCN)NC(=O)[C@H](Cc3ccc(O)cc3)NC(=O)[C@@H](NC(=O)[C@@H](O)C(C)C)CSSC[C@@H](C(=O)NC(CO)CO)NC(=O)[C@H](C(C)(C)C)NC(=O)[C@H](CO)NC(=O)[C@H](Cc3c[nH]c4ccccc34)NC(=O)[C@H](CCO)NC(=O)[C@@H](CCN)NC2=O)[C@@H](C)O)CCNC(=O)[C@H]([C@@H](C)O)NC(=O)[C@H](CCN)NC(=O)[C@H](CCN)NC1=O [Ex. 95] (I: H-[Hiv]CY[Dab]E[dDab][hSer]WS[Tle]C-{NHCH(CH2OH)2} / II: [Dab]T[Dab][Dab][Dab][dL]L[Dab][Dab]T; disulfide I:2-I:11; amide I:5-II:N; lactam II:4-II:C)
MIC [1]: 0.125 µg/mL (≈ 0.0524 µM) | MIC [2]: 0.125 µg/mL (≈ 0.0524 µM) | MIC [3]: 0.125 µg/mL (≈ 0.0524 µM) | MIC [4]: 0.125 µg/mL (≈ 0.0524 µM) | MIC [5]: 0.125 µg/mL (≈ 0.0524 µM) | MIC [6]: 4 µg/mL (≈ 1.68 µM) | MIC [7]: 0.0625 µg/mL (≈ 0.0262 µM) | MIC [8]: 0.03125 µg/mL (≈ 0.0131 µM) | Hemolysis at 200 μg/mL [9]: <1%

CC(=O)N[C@@H](CO)C(=O)N[C@H]1CSSC[C@@H](C(=O)N[C@H](C(N)=O)C(C)C)NC(=O)[C@H](C(C)C)NC(=O)[C@H](CO)NC(=O)[C@H](Cc2c[nH]c3ccccc23)NC(=O)[C@H](CCO)NC(=O)[C@@H](CCN)NC(=O)[C@H](CCC(=O)N[C@@H](CCN)C(=O)N[C@H](C(=O)N[C@@H](CCN)C(=O)N[C@H]2CCNC(=O)[C@H]([C@@H](C)O)NC(=O)[C@H](CCN)NC(=O)[C@H](CCN)NC(=O)[C@H](CC(C)C)NC(=O)[C@@H](CC(C)C)NC(=O)[C@H](CCN)NC2=O)[C@@H](C)O)NC(=O)[C@H](CCN)NC(=O)[C@H](Cc2ccc(O)cc2)NC1=O [Ex. 62] (I: Ac-SCY[Dab]E[dDab][hSer]WSVCV-NH2 / II: [Dab]T[Dab][Dab][Dab][dL]L[Dab][Dab]T; disulfide I:2-I:11; amide I:5-II:N; lactam II:4-II:C)
MIC [1]: 0.125 µg/mL (≈ 0.0515 µM) | MIC [2]: 0.25 µg/mL (≈ 0.103 µM) | MIC [3]: 0.125 µg/mL (≈ 0.0515 µM) | MIC [4]: 0.0625 µg/mL (≈ 0.0258 µM) | MIC [5]: 0.125 µg/mL (≈ 0.0515 µM) | MIC [6]: 4 µg/mL (≈ 1.65 µM) | MIC [7]: 0.0625 µg/mL (≈ 0.0258 µM) | MIC [8]: 0.125 µg/mL (≈ 0.0515 µM) | Hemolysis at 200 μg/mL [9]: <1%

CC(=O)N[C@H](C(=O)N[C@@H](CN)C(=O)N[C@@H](Cc1ccc(O)cc1)C(=O)N[C@H]1CSSC[C@@H](C(=O)N[C@H](C(=O)N[C@@H](CC(=O)O)C(=O)N[C@H](C(N)=O)[C@@H](C)O)C(C)(C)C)NC(=O)[C@H](Cc2c[nH]c3ccccc23)NC(=O)[C@H](CO)NC(=O)[C@@H](CCN)NC(=O)[C@H](CCC(=O)N[C@@H](CCN)C(=O)N[C@H](C(=O)N[C@@H](CN)C(=O)N[C@H]2CCNC(=O)[C@H]([C@@H](C)O)NC(=O)[C@H](CCN)NC(=O)[C@H](CCN)NC(=O)[C@H](CC(C)C)NC(=O)[C@@H](CC(C)C)NC(=O)[C@H](CCN)NC2=O)[C@@H](C)O)NC1=O)C(C)C [Ex. 227] (I: Ac-V[Dap]YCE[dDab]SWC[Tle]DT-NH2 / II: [Dab]T[Dap][Dab][Dab][dL]L[Dab][Dab]T; disulfide I:4-I:9; amide I:5-II:N; lactam II:4-II:C)
MIC [1]: 0.5 µg/mL (≈ 0.205 µM) | MIC [2]: 0.125 µg/mL (≈ 0.0512 µM) | MIC [3]: 0.125 µg/mL (≈ 0.0512 µM) | MIC [4]: 0.125 µg/mL (≈ 0.0512 µM) | MIC [5]: 0.125 µg/mL (≈ 0.0512 µM) | MIC [6]: 0.125 µg/mL (≈ 0.0512 µM) | MIC [7]: 0.03125 µg/mL (≈ 0.0128 µM) | MIC [8]: 0.03125 µg/mL (≈ 0.0128 µM) | Hemolysis at 200 μg/mL [9]: <1%

CC(=O)N[C@H](C(=O)N[C@H]1CSSC[C@@H](C(=O)N[C@@H](CO)C(N)=O)NC(=O)[C@H](Cc2ccc(O)cc2)NC(=O)[C@H](CO)NC(=O)[C@H](Cc2c[nH]c3ccccc23)NC(=O)[C@H](CCO)NC(=O)[C@@H](CCN)NC(=O)[C@H](CCC(=O)N[C@@H](CCN)C(=O)N[C@H](C(=O)N[C@@H](CCN)C(=O)N[C@H]2CCNC(=O)[C@H]([C@@H](C)O)NC(=O)[C@H](CCN)NC(=O)[C@H](CCN)NC(=O)[C@H](CC(C)C)NC(=O)[C@@H](CC(C)C)NC(=O)[C@H](CCN)NC2=O)[C@@H](C)O)NC(=O)[C@H](CCN)NC(=O)[C@H](C(C)C)NC1=O)C(C)C [Ex. 64] (I: Ac-VCV[Dab]E[dDab][hSer]WSYCS-NH2 / II: [Dab]T[Dab][Dab][Dab][dL]L[Dab][Dab]T; disulfide I:2-I:11; amide I:5-II:N; lactam II:4-II:C)
MIC [1]: 1 µg/mL (≈ 0.412 µM) | MIC [2]: 0.5 µg/mL (≈ 0.206 µM) | MIC [3]: 0.5 µg/mL (≈ 0.206 µM) | MIC [4]: 0.125 µg/mL (≈ 0.0515 µM) | MIC [5]: 0.125 µg/mL (≈ 0.0515 µM) | MIC [6]: 4 µg/mL (≈ 1.65 µM) | MIC [7]: 0.0625 µg/mL (≈ 0.0258 µM) | MIC [8]: 0.125 µg/mL (≈ 0.0515 µM) | Hemolysis at 200 μg/mL [9]: <1%

CC[C@@H]1NC(=O)[C@@H](CC(C)C)NC(=O)[C@H](CCN)NC(=O)[C@@H](NC(=O)[C@H](CN)NC(=O)[C@@H](NC(=O)[C@H](CCN)NC(=O)CC[C@@H]2NC(=O)[C@H](CCN)NC(=O)[C@H](Cc3ccc(O)cc3)NC(=O)[C@@H](NC(=O)[C@@H](NC(C)=O)C(C)C)CSSC[C@@H](C(=O)N[C@@H](CO)C(N)=O)NC(=O)[C@H](C(C)(C)C)NC(=O)[C@H](CO)NC(=O)[C@H](Cc3c[nH]c4ccccc34)NC(=O)[C@H](CO)NC(=O)[C@@H](CCN)NC2=O)[C@@H](C)O)CCNC(=O)[C@H]([C@@H](C)O)NC(=O)[C@H](CCN)NC(=O)[C@H](CCN)NC1=O [Ex. 136] (I: Ac-VCY[Dab]E[dDab]SWS[Tle]CS-NH2 / II: [Dab]T[Dap][Dab][Dab][dL][Abu][Dab][Dab]T; disulfide I:2-I:11; amide I:5-II:N; lactam II:4-II:C)
MIC [1]: 0.0625 µg/mL (≈ 0.0262 µM) | MIC [2]: 0.0625 µg/mL (≈ 0.0262 µM) | MIC [3]: 0.03125 µg/mL (≈ 0.0131 µM) | MIC [4]: 0.0625 µg/mL (≈ 0.0262 µM) | MIC [5]: 0.25 µg/mL (≈ 0.105 µM) | MIC [6]: 0.0625 µg/mL (≈ 0.0262 µM) | MIC [7]: 0.03125 µg/mL (≈ 0.0131 µM) | MIC [8]: 0.03125 µg/mL (≈ 0.0131 µM) | Hemolysis at 200 μg/mL [9]: 3%

CC(=O)N[C@@H](CC(C)C)C(=O)N[C@H]1CSSC[C@@H](C(=O)N[C@@H](CO)C(N)=O)NC(=O)[C@H](C(C)C)NC(=O)[C@H](CCN)NC(=O)[C@H](Cc2c[nH]c3ccccc23)NC(=O)[C@H](CO)NC(=O)[C@@H](CCN)NC(=O)[C@H](CCC(=O)N[C@@H](CCN)C(=O)N[C@H](C(=O)N[C@@H](CN)C(=O)N[C@H]2CCNC(=O)[C@H]([C@@H](C)O)NC(=O)[C@H](CCN)NC(=O)[C@H](CCN)NC(=O)[C@H](CC(C)C)NC(=O)[C@@H](CC(C)C)NC(=O)[C@H](CCN)NC2=O)[C@@H](C)O)NC(=O)[C@H](CCN)NC(=O)[C@H](Cc2ccc(O)cc2)NC1=O [Ex. 330] (I: Ac-LCY[Dab]E[dDab]SW[Dab]VCS-NH2 / II: [Dab]T[Dap][Dab][Dab][dL]L[Dab][Dab]T; disulfide I:2-I:11; amide I:5-II:N; lactam II:4-II:C)
MIC [1]: 2 µg/mL (≈ 0.824 µM) | MIC [2]: 0.25 µg/mL (≈ 0.103 µM) | MIC [3]: 1 µg/mL (≈ 0.412 µM) | Klebsiella pneumoniae SSI #3010 MIC [4]: 0.0625 µg/mL | Pseudomonas aeruginosa ATCC 27853 MIC [5]: 0.25 µg/mL | MIC [6]: 0.125 µg/mL (≈ 0.0515 µM) | Acinetobacter baumannii DSM 30008 MIC [7]: 0.25 µg/mL | Escherichia coli ATCC 25922 MIC [8]: 0.0625 µg/mL | Hemolysis at 200 μg/mL [9]: 1%

CC(=O)N[C@@H](C(=O)N[C@H]1CSSC[C@@H](C(=O)N[C@H](CO)[C@@H](C)O)NC(=O)[C@H](C(C)(C)C)NC(=O)[C@H](CO)NC(=O)[C@H](Cc2c[nH]c3ccccc23)NC(=O)[C@H](CCO)NC(=O)[C@@H](CCN)NC(=O)[C@H](CCC(=O)N[C@@H](CCN)C(=O)N[C@H](C(=O)N[C@@H](CCN)C(=O)N[C@H]2CCNC(=O)[C@H]([C@@H](C)O)NC(=O)[C@H](CCN)NC(=O)[C@H](CCN)NC(=O)[C@H](CC(C)C)NC(=O)[C@@H](CC(C)C)NC(=O)[C@H](CCN)NC2=O)[C@@H](C)O)NC(=O)[C@H](CCN)NC(=O)[C@H](Cc2ccc(O)cc2)NC1=O)C(C)C [Ex. 86] (I: Ac-[dV]CY[Dab]E[dDab][hSer]WS[Tle]C[Thr(ol)] / II: [Dab]T[Dab][Dab][Dab][dL]L[Dab][Dab]T; disulfide I:2-I:11; amide I:5-II:N; lactam II:4-II:C)
MIC [1]: 0.125 µg/mL (≈ 0.0512 µM) | MIC [2]: 0.25 µg/mL (≈ 0.102 µM) | MIC [3]: 0.25 µg/mL (≈ 0.102 µM) | MIC [4]: 0.125 µg/mL (≈ 0.0512 µM) | MIC [5]: 0.125 µg/mL (≈ 0.0512 µM) | MIC [6]: 1 µg/mL (≈ 0.41 µM) | MIC [7]: 0.0625 µg/mL (≈ 0.0256 µM) | MIC [8]: 0.125 µg/mL (≈ 0.0512 µM) | Hemolysis at 200 μg/mL [9]: <1%
